According to ChEMBL document CHEMBL1275409, “Antimicrobial-resistant pathogens in intensive care units in Canada: results of the Canadian National Intensive Care Unit (CAN-ICU) study, 2005-2006” (2008):

Experiments:
Type in all cases: functional
Enterobacter cloacae [1] = assay: Antimicrobial activity against carbapenem-resistant Enterobacter cloacae isolated from ICU patient blood assessed as resistant isolates by broth microdilution method
Pseudomonas aeruginosa [2] = assay: Antimicrobial activity against carbapenem-resistant Pseudomonas aeruginosa assessed as resistant isolates by broth microdilution method
Pseudomonas aeruginosa [3] = assay: Antimicrobial activity against carbapenem-resistant Pseudomonas aeruginosa isolated from ICU patient urine assessed as resistant isolates by broth microdilution method
Klebsiella pneumoniae [4] = assay: Antimicrobial activity against ESBL producing Klebsiella pneumoniae assessed as resistant isolates by broth microdilution method
Pseudomonas aeruginosa [5] = assay: Antimicrobial activity against carbapenem-resistant Pseudomonas aeruginosa isolated from ICU patient wound assessed as resistant isolates by broth microdilution method
Enterobacter cloacae [6] = assay: Antimicrobial activity against carbapenem-resistant Enterobacter cloacae isolated from ICU patient respiratory tract assessed as resistant isolates by broth microdilution method
Enterobacter cloacae [7] = assay: Antimicrobial activity against carbapenem-resistant Enterobacter cloacae isolated from ICU patient wound assessed as resistant isolates by broth microdilution method
Escherichia coli [8] = assay: Antimicrobial activity against CTX-M ESBL producing Escherichia coli isolated from ICU patient wound assessed as resistant isolates by broth microdilution method
Escherichia coli [9] = assay: Antimicrobial activity against CTX-M ESBL producing Escherichia coli isolated from ICU patient urine assessed as resistant isolates by broth microdilution method
Klebsiella pneumoniae [10] = assay: Antimicrobial activity against ESBL producing Klebsiella pneumoniae isolated from ICU patient wound assessed as resistant isolates by broth microdilution method
Enterobacter cloacae [11] = assay: Antimicrobial activity against carbapenem-resistant Enterobacter cloacae assessed as resistant isolates by broth microdilution method
Klebsiella pneumoniae [12] = assay: Antimicrobial activity against ESBL producing Klebsiella pneumoniae isolated from ICU patient respiratory tract assessed as resistant isolates by broth microdilution method
Pseudomonas aeruginosa [13] = assay: Antimicrobial activity against carbapenem-resistant Pseudomonas aeruginosa isolated from ICU patient blood assessed as resistant isolates by broth microdilution method
Enterobacter cloacae [14] = assay: Antimicrobial activity against carbapenem-resistant Enterobacter cloacae isolated from ICU patient urine assessed as resistant isolates by broth microdilution method
Escherichia coli [15] = assay: Antimicrobial activity against CTX-M ESBL producing Escherichia coli isolated from ICU patient respiratory tract assessed as resistant isolates by broth microdilution method
Klebsiella pneumoniae [16] = assay: Antimicrobial activity against ESBL producing Klebsiella pneumoniae isolated from ICU patient urine assessed as resistant isolates by broth microdilution method
Escherichia coli [17] = assay: Antimicrobial activity against CTX-M ESBL producing Escherichia coli isolated from ICU patient blood assessed as resistant isolates by broth microdilution method
Klebsiella pneumoniae [18] = assay: Antimicrobial activity against ESBL producing Klebsiella pneumoniae isolated from ICU patient blood assessed as resistant isolates by broth microdilution method
Escherichia coli [19] = assay: Antimicrobial activity against CTX-M ESBL producing Escherichia coli assessed as resistant isolates by broth microdilution method
Pseudomonas aeruginosa [20] = assay: Antimicrobial activity against carbapenem-resistant Pseudomonas aeruginosa isolated from ICU patient respiratory tract assessed as resistant isolates by broth microdilution method
Staphylococcus aureus [21] = assay: Antimicrobial activity against methicillin-resistant Staphylococcus aureus assessed as resistant isolates by broth microdilution method
Staphylococcus aureus [22] = assay: Antimicrobial activity against methicillin-resistant Staphylococcus aureus isolated from ICU patient urine assessed as resistant isolates by broth microdilution method
Enterococcus sp. [23] = assay: Antimicrobial activity against vancomycin-resistant Enterococcus sp. isolated from ICU patient respiratory tract assessed as resistant isolates by broth microdilution method
Staphylococcus aureus [24] = assay: Antimicrobial activity against methicillin-resistant Staphylococcus aureus isolated from ICU patient respiratory tract assessed as resistant isolates by broth microdilution method
Staphylococcus aureus [25] = assay: Antimicrobial activity against methicillin-susceptible Staphylococcus aureus isolated from ICU patient urine assessed as resistant isolates by broth microdilution method
Staphylococcus aureus [26] = assay: Antimicrobial activity against methicillin-susceptible Staphylococcus aureus assessed as resistant isolates by broth microdilution method
Staphylococcus aureus [27] = assay: Antimicrobial activity against methicillin-susceptible Staphylococcus aureus isolated from ICU patient respiratory tract assessed as resistant isolates by broth microdilution method
Enterococcus sp. [28] = assay: Antimicrobial activity against vancomycin-resistant Enterococcus sp. isolated from ICU patient urine assessed as resistant isolates by broth microdilution method
Enterococcus sp. [29] = assay: Antimicrobial activity against vancomycin-resistant Enterococcus sp. isolated from ICU patient blood assessed as resistant isolates by broth microdilution method
Staphylococcus aureus [30] = assay: Antimicrobial activity against methicillin-resistant Staphylococcus aureus isolated from ICU patient wound assessed as resistant isolates by broth microdilution method
Enterococcus sp. [31] = assay: Antimicrobial activity against vancomycin-resistant Enterococcus sp. assessed as resistant isolates by broth microdilution method
Staphylococcus aureus [32] = assay: Antimicrobial activity against methicillin-susceptible Staphylococcus aureus isolated from ICU patient blood assessed as resistant isolates by broth microdilution method
Staphylococcus aureus [33] = assay: Antimicrobial activity against methicillin-resistant Staphylococcus aureus isolated from ICU patient blood assessed as resistant isolates by broth microdilution method
Enterococcus sp. [34] = assay: Antimicrobial activity against vancomycin-resistant Enterococcus sp. isolated from ICU patient wound assessed as resistant isolates by broth microdilution method
Staphylococcus aureus [35] = assay: Antimicrobial activity against methicillin-susceptible Staphylococcus aureus isolated from ICU patient wound assessed as resistant isolates by broth microdilution method
Streptococcus pneumoniae [36] = assay: Antimicrobial activity against penicillin-resistant Streptococcus pneumoniae assessed as resistant isolates by broth microdilution method
[37] = tested on: Staphylococcus epidermidis; assay: Antimicrobial activity against methicillin-resistant Staphylococcus epidermidis assessed as resistant isolates by broth microdilution method
[38] = tested on: Staphylococcus epidermidis; assay: Antimicrobial activity against methicillin-resistant Staphylococcus epidermidis isolated from ICU patient urine assessed as resistant isolates by broth microdilution method
[39] = tested on: Staphylococcus epidermidis; assay: Antimicrobial activity against methicillin-susceptible Staphylococcus epidermidis isolated from ICU patient urine assessed as resistant isolates by broth microdilution method
[40] = tested on: Staphylococcus epidermidis; assay: Antimicrobial activity against methicillin-susceptible Staphylococcus epidermidis isolated from ICU patient respiratory tract assessed as resistant isolates by broth microdilution method
Streptococcus pneumoniae [41] = assay: Antimicrobial activity against penicillin-resistant Streptococcus pneumoniae isolated from ICU patient blood assessed as resistant isolates by broth microdilution method
[42] = tested on: Staphylococcus epidermidis; assay: Antimicrobial activity against methicillin-susceptible Staphylococcus epidermidis isolated from ICU patient blood assessed as resistant isolates by broth microdilution method
Streptococcus pneumoniae [43] = assay: Antimicrobial activity against penicillin-resistant Streptococcus pneumoniae isolated from ICU patient wound assessed as resistant isolates by broth microdilution method
Streptococcus pneumoniae [44] = assay: Antimicrobial activity against penicillin-resistant Streptococcus pneumoniae isolated from ICU patient respiratory tract assessed as resistant isolates by broth microdilution method
[45] = tested on: Staphylococcus epidermidis; assay: Antimicrobial activity against methicillin-susceptible Staphylococcus epidermidis isolated from ICU patient wound assessed as resistant isolates by broth microdilution method
[46] = tested on: Staphylococcus epidermidis; assay: Antimicrobial activity against methicillin-susceptible Staphylococcus epidermidis assessed as resistant isolates by broth microdilution method
[47] = tested on: Staphylococcus epidermidis; assay: Antimicrobial activity against methicillin-resistant Staphylococcus epidermidis isolated from ICU patient blood assessed as resistant isolates by broth microdilution method
[48] = tested on: Staphylococcus epidermidis; assay: Antimicrobial activity against methicillin-resistant Staphylococcus epidermidis isolated from ICU patient wound assessed as resistant isolates by broth microdilution method

Measured: Activity

NCC[C@H](O)C(=O)N[C@@H]1C[C@H](N)[C@@H](O[C@H]2O[C@H](CN)[C@@H](O)[C@H](O)[C@H]2O)[C@H](O)[C@H]1O[C@H]1O[C@H](CO)[C@@H](O)[C@H](N)[C@H]1O [AMIKACIN]
1.9%: Klebsiella pneumoniae [10]
2.6%: Klebsiella pneumoniae [4]
0%: Enterobacter cloacae [1] | Pseudomonas aeruginosa [2] | Pseudomonas aeruginosa [3] | Pseudomonas aeruginosa [5] | Enterobacter cloacae [6] | Enterobacter cloacae [7] | Escherichia coli [8] | Escherichia coli [9] | Enterobacter cloacae [11] | Pseudomonas aeruginosa [13] | Enterobacter cloacae [14] | Escherichia coli [15] | Escherichia coli [17] | Klebsiella pneumoniae [18] | Escherichia coli [19] | Pseudomonas aeruginosa [20]
6.7%: Klebsiella pneumoniae [16]
2.4%: Klebsiella pneumoniae [12]

CN(C)c1cc(NC(=O)CNC(C)(C)C)c(O)c2c1C[C@H]1C[C@H]3[C@H](N(C)C)C(O)=C(C(N)=O)C(=O)[C@@]3(O)C(O)=C1C2=O [TIGECYCLINE]
0.6%: Enterobacter cloacae [11]
2%: Pseudomonas aeruginosa [3]
3.9%: Pseudomonas aeruginosa [5]
6.3%: Enterobacter cloacae [14]
0.4%: Pseudomonas aeruginosa [2]
not listed: Klebsiella pneumoniae [4] | Klebsiella pneumoniae [10] | Klebsiella pneumoniae [12] | Klebsiella pneumoniae [16] | Klebsiella pneumoniae [18] | Streptococcus pneumoniae [36] | [37] | [38] | [39] | [40] | Streptococcus pneumoniae [41] | [42] | Streptococcus pneumoniae [43] | Streptococcus pneumoniae [44] | [45] | [46] | [47] | [48]
0%: all other assays above

CN[C@H](CC(C)C)C(=O)N[C@H]1C(=O)N[C@@H](CC(N)=O)C(=O)N[C@H]2C(=O)N[C@H]3C(=O)N[C@H](C(=O)N[C@H](C(=O)O)c4cc(O)cc(O)c4-c4cc3ccc4O)[C@H](O)c3ccc(c(Cl)c3)Oc3cc2cc(c3O[C@@H]2O[C@H](CO)[C@@H](O)[C@H](O)[C@H]2O[C@H]2C[C@](C)(N)[C@H](O)[C@H](C)O2)Oc2ccc(cc2Cl)[C@H]1O [VANCOMYCIN]
3.3%: Enterococcus sp. [23]
5.4%: Enterococcus sp. [29]
6.8%: Enterococcus sp. [31]
12.5%: Enterococcus sp. [34]
4%: Enterococcus sp. [28]
not listed: Enterobacter cloacae [1] | Pseudomonas aeruginosa [2] | Pseudomonas aeruginosa [3] | Klebsiella pneumoniae [4] | Pseudomonas aeruginosa [5] | Enterobacter cloacae [6] | Enterobacter cloacae [7] | Escherichia coli [8] | Escherichia coli [9] | Klebsiella pneumoniae [10] | Enterobacter cloacae [11] | Klebsiella pneumoniae [12] | Pseudomonas aeruginosa [13] | Enterobacter cloacae [14] | Escherichia coli [15] | Klebsiella pneumoniae [16] | Escherichia coli [17] | Klebsiella pneumoniae [18] | Escherichia coli [19] | Pseudomonas aeruginosa [20]
0%: all other assays above

GENTAMICIN
14.2%: Klebsiella pneumoniae [12]
22.2%: Klebsiella pneumoniae [16]
1.9%: Enterobacter cloacae [6]
18.9%: Klebsiella pneumoniae [10]
3%: Enterobacter cloacae [11] | Escherichia coli [19]
8.3%: Enterobacter cloacae [1]
6.9%: Escherichia coli [8] | Escherichia coli [17]
0%: Pseudomonas aeruginosa [2] | Pseudomonas aeruginosa [3] | Pseudomonas aeruginosa [5] | Enterobacter cloacae [7] | Pseudomonas aeruginosa [13] | Pseudomonas aeruginosa [20]
15.2%: Klebsiella pneumoniae [4]
3.3%: Escherichia coli [15]
1.1%: Escherichia coli [9]
9.1%: Klebsiella pneumoniae [18]
6.3%: Enterobacter cloacae [14]
